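Each compound was tested at five concentrations against cells in 96-well plates for 48 hours. GI50 = concentration required for 50% inhibition of growth. TGI denotes the concentration required for complete inhibition of growth.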
Assays:
Experiment in all cases: NCI-60 cell line screen, 48 h
MDA-MB-435 = system: MDA-MB-435
SF-295 CNS = system: SF-295 CNS
NCI-H522 lung = system: NCI-H522 lung
DMS 114 small cell lung = system: DMS 114 small cell lung
HT29 colon = system: HT29 colon
NCI/ADR-RES ovarian = system: NCI/ADR-RES ovarian
M14 melanoma = system: M14 melanoma
786-0 renal = system: 786-0 renal
COLO 205 colon = system: COLO 205 colon
SNB-19 CNS = system: SNB-19 CNS
IGROV1 ovarian = system: IGROV1 ovarian

Row | Structure (SMILES) | GI50 (MDA-MB-435) [µM] | TGI (MDA-MB-435) [µM] | GI50 (SF-295 CNS) [µM] | TGI (SF-295 CNS) [µM] | TGI (NCI-H522 lung) [µM] | TGI (DMS 114 small cell lung) [µM] | TGI (HT29 colon) [µM] | TGI (NCI/ADR-RES ovarian) [µM] | TGI (M14 melanoma) [µM] | TGI (786-0 renal) [µM] | TGI (COLO 205 colon) [µM] | TGI (SNB-19 CNS) [µM] | TGI (IGROV1 ovarian) [µM] | GI50 (HT29 colon) [µM] | GI50 (NCI/ADR-RES ovarian) [µM] | GI50 (M14 melanoma) [µM] | GI50 (COLO 205 colon) [µM] | GI50 (SNB-19 CNS) [µM] | GI50 (IGROV1 ovarian) [µM]
1 | OCCN1CCN(c2nc(Nc3ccc(-c4nc5ccccc5[nH]4)cc3)c3cn[nH]c3n2)CC1 | 1.82 | 3.29 | 1.88 | 3.31 |  |  |  |  |  |  |  |  |  |  |  |  |  |  | 
2 | Cc1n(-c2ccccc2)c2c([n+]1Cc1ccc([N+](=O)[O-])cc1)C(=O)c1ccccc1C2=O |  | 3.12 |  | 15.3 | 1.67 | 1.49 | 6.43 | 5.61 | 7 | 14.7 | 3.07 | 3.22 | 2.23 |  |  |  |  |  | 
3 | Nc1nc(Sc2ccc([N+](=O)[O-])cn2)c2[nH]cnc2n1 |  | > 46.1 |  | > 94.2 | 40.2 |  | > 74.3 | 30.3 | 24.1 | > 52.8 | 39 | 72.1 | 77.9 |  |  |  |  |  | 
4 | Cc1cc(=O)[nH]c(NN2C(Cl)C(=O)C2c2c(O)ccc3ccccc23)n1 (centres undefined) |  |  |  |  |  | 56 | 74 |  | 29 |  | 58.2 | 77.6 | > 100 |  |  |  |  |  | 
5 | CCN(CC)CCOCC1CCCN2CCCCC12 (centres undefined) |  | > 100 |  | > 100 |  |  | > 100 | > 100 | > 100 | > 100 | > 100 | > 100 |  |  |  |  |  |  | 
6 | NS(=O)(=O)c1ccc(N=Nc2nc3[nH]cnc(=S)c3[nH]2)cc1 |  | > 100 |  | > 64.7 | 10.2 |  | > 68.2 | 14.5 | > 32.6 | > 100 | 7.09 | > 100 | > 100 |  |  |  |  |  | 
7 | Cc1n(CC(C)C)c2c([n+]1CC(=O)c1ccc([N+](=O)[O-])cc1)C(=O)c1ccccc1C2=O |  |  |  | 1.51 | < 0.01 |  | 0.55 | 2.91 |  |  | < 0.01 | 0.104 | 0.0102 |  |  |  |  |  | 
8 | NC(N)=NCCCC(NCc1c2ccccc2[n+]([O-])c2ccccc12)C(=O)O (centres undefined) |  |  |  | > 100 | > 100 | > 100 | > 100 |  | > 100 | > 100 | > 100 | > 100 | > 100 |  |  |  |  |  | 
9 | COc1cc(O)c2c(c1O)C(=O)c1cc(C)ncc1C2=O |  |  |  | > 50 | > 50 | > 50 | > 50 |  | > 50 | > 50 | > 50 | > 50 | > 50 |  |  |  |  |  | 
10 | c1ccc(C2=NN[C@H](c3cn(-c4ccccc4)nc3-c3ccccc3)C2)cc1 | > 100 | > 100 |  |  |  |  | > 100 | > 100 | > 100 |  | > 100 | > 100 | > 100 | > 100 | 3.98 | 6.46 | 6.55 | 5.05 | 5.57
11 | C=CCCCCn1c2ccccc2c2c(C)c3c[n+](C)ccc3c(C)c21 |  |  |  | 2.6 | 0.608 | 0.811 | 1.75 |  | 2.19 |  | 1.08 | 1.73 | 1.4 |  |  |  |  |  | 
12 | CCCCCCCSCC1OC(n2cnc3c(N)ncnc32)C(O)C1O (centres undefined) |  |  |  | > 100 |  | 71.1 | 4.51 |  | 48.5 |  | 28.3 | > 100 | 41.8 |  |  |  |  |  | 
13 | CCCC(=O)[O-].CCCC(=O)[O-].N.N.N.N.[Co+3].[O-][Cl+3]([O-])([O-])[O-] |  |  |  | > 100 | > 100 |  | > 100 |  | > 100 | > 100 | > 100 | > 100 | > 100 |  |  |  |  |  | 
14 | Oc1c2c(c3c4c1N=CC=4CCN=3)C1(C=C(Br)C(O)C(Br)=C1)CCN2 (centres undefined) |  |  |  | 7.74 | 0.818 | 0.718 | 2.15 | 2.77 |  |  | 0.418 | > 34.8 | 2.86 |  |  |  |  |  | 

From PubChem BioAssay (NCI)
